Calls of active or inactive are those of the source.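 The calls were made as follows: active = peak TASK1 channel inhibition over 30% at some tested dose, plus a fitted dose response curve; inactive = no inhibition at any dose, or no curve fitted.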
Test system: not listed separately
Assay: thallium flux inhibition in parental CHO, SAR follow-up, counter-screen for TASK1 inhibitor project, cell-based, FluxOR thallium flux, CRC (AID 652188)
Details: CHO parental cells, FluxOR thallium flux counter-screen; at 30 µM (top of the series)
For `COc1ccccc1C(=O)Nc1cc(NC(=O)c2ccccc2C(C)C)ccc1F`, the flux ratio, lower = inhibition was 0.298 (inactive). In the case of `COc1ccccc1C(=O)Nc1cc(NC(=O)c2cccc(C)c2)ccc1F`, the flux ratio, lower = inhibition is reported as 0.306 (inactive). With `Cc1cccc(C(=O)Nc2cccc(NC(=O)c3cccs3)c2)c1` the flux ratio, lower = inhibition was 0.334 (inactive). For `COc1ccc(CC(=O)NCc2ccccc2-c2ccccc2C(=O)NCc2ccc(F)cc2F)cc1`, the flux ratio, lower = inhibition was 0.295 (inactive). With `COc1ccc(F)cc1C(=O)Nc1cccc(NC(=O)c2cccc(C)c2)c1` the flux ratio, lower = inhibition was 0.311 (inactive). With `CCCC(=O)C1CCN(c2ncnc3c2CN(C(=O)c2ccc(-c4ccccc4)cc2)CC3)CC1` the flux ratio, lower = inhibition was 0.302 (inactive). With `Cc1cccc(C(=O)Nc2cccc(NC(=O)c3cccc(C(F)(F)F)c3)c2)c1` the flux ratio, lower = inhibition was 0.304 (inactive). In the case of `COc1c(F)cccc1C(=O)Nc1cccc(NC(=O)c2cccc(C)c2)c1`, the flux ratio, lower = inhibition is reported as 0.317 (inactive). For `COc1ccccc1C(=O)Nc1cccc(NC(=O)c2cccc(C)c2)c1`, the flux ratio, lower = inhibition was 0.322 (inactive). With `Cc1cccc(C(=O)Nc2cccc(NC(=O)c3cccc(F)c3)c2)c1` the flux ratio, lower = inhibition was 0.313 (inactive). With `COc1cnccc1C(=O)Nc1cccc(NC(=O)c2cccc(C)c2)c1` the flux ratio, lower = inhibition was 0.339 (inactive). For `Cc1cccc(C(=O)Nc2cccc(NC(=O)c3ccccc3)c2)c1`, the flux ratio, lower = inhibition was 0.319 (inactive). For `O=C(Nc1cccc(NC(=O)c2cccc(F)c2)c1)c1ccccc1`, the flux ratio, lower = inhibition was 0.326 (inactive). For `Cc1cccc(C(=O)Nc2cccc(NC(=O)c3ccncc3)c2)c1`, the flux ratio, lower = inhibition was 0.32 (inactive).

Test system: CHO parental cells, FluxOR thallium flux counter-screen
Assay: as above
Details: not given
In the case of `CCOc1ccccc1C(=O)Nc1cccc(NC(=O)c2cccc(C)c2)c1`, the IC50 is reported as 1240 nM. Molecule `O=C(Nc1cccc(NC(=O)c2ccccc2)c1)c1ccccc1` has an IC50 of 240 nM.

Source: PubChem BioAssay AID652188 (Johns Hopkins Ion Channel Center, 2013)
